According to PubChem BioAssay AID540265 (Sanford-Burnham Center for Chemical Genomics, 2011):
Activity calls are given as the source filed them. The rule behind the calls is not given here.

Molecular target: Intestinal-type alkaline phosphatase (Homo sapiens) (UniProt P09923)
Test: inhibition of intestinal alkaline phosphatase activity – biochemical, luminescence, set 2, SAR follow-up (AID 540265)
Conditions: purified human IAP, luminescent substrate read-out

Intestinal-type alkaline phosphatase (Homo sapiens), sequence (P09923 whole entry, looked up): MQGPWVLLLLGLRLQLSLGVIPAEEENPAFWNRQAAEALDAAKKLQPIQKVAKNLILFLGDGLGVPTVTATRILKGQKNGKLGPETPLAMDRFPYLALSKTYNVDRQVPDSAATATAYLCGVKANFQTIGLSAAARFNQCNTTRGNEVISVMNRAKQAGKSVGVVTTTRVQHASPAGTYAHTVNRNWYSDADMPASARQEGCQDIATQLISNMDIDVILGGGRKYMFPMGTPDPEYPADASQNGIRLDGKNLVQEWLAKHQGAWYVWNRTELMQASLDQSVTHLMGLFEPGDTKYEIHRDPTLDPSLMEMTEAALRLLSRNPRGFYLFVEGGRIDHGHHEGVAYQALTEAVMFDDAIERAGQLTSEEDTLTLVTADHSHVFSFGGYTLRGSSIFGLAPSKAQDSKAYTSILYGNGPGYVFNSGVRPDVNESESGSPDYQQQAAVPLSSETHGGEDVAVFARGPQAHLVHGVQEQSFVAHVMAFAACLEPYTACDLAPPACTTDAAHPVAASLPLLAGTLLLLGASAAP

SMILES	IC50
O=C(CNS(=O)(=O)c1ccc2[nH]c(=O)oc2c1)Nc1ccc2c(c1)OCO2	> 100 µM (inactive)
N#Cc1ccc(CNC(=O)CCNS(=O)(=O)c2ccc3[nH]c(=O)oc3c2)cc1	> 100 µM (inactive)
COc1ccc(NC(=O)CNS(=O)(=O)c2ccc3[nH]c(=O)oc3c2)cc1OC	> 100 µM (inactive)
O=C(CNS(=O)(=O)c1ccc2[nH]c(=O)oc2c1)NCc1ccc2c(c1)OCO2	> 100 µM (inactive)
Cc1ccc(C)c(NC(=O)CCNS(=O)(=O)c2ccc3[nH]c(=O)oc3c2)c1	> 100 µM (inactive)
